Measurements as given in patent US9067932B2, “Pyrazolopyridine kinase inhibitors” (Vertex Pharmaceuticals Incorporated, priority 2010, dated 2015).
Where two headings read alike, the source gives them in different places.

Experiments:
Type in all cases: biochemical
PKC alpha kinase = PKC alpha kinase (Homo sapiens, UniProt P17252); assay: PKC alpha coupled-enzyme (NADH consumption) kinase assay; conditions: 4.5 nM PKC alpha, 130 μM ATP, 100 μM CaCl2, 30° C.
Experimental: An assay buffer solution was prepared which consisted of 100 mM HEPES (pH 7.5), 10 mM MgCl2, 25 mM NaCl, 0.1 mM EDTA, 100 μM CaCl2 and 0.01% Brij. An enzyme buffer containing reagents to final assay concentrations of 0.002% Triton X-100, 100 μg/mL Phosphatidylserine, 20 μg/mL Diacylglycerol, 360 μM NADH, 3 mM phosphoenolpyruvate, 70 μg/mL pyruvate kinase, 24 μg/mL lactate dehydrogenase, 2 mM DTT, 150 μM substrate peptide ([…] SEQ ID NO. 1) and 4.5 nM PKC alpha kinase was prepared in assay buffer. To 16 μL of this enzyme buffer, in a 384 well plate, was added 1 μL of VRT stock solution in DMSO. The mixture was allowed to equilibrate for 10 mins at 30° C. The enzyme reaction was initiated by the addition of 16 μL stock ATP solution prepared in assay buffer to a final assay concentration of 130 μM. Initial rate data was determined from the rate of change of absorbance at 340 nm (corresponding to stoichiometric consumption of NADH) using a Molecular Devices Spectramax plate reader (Sunnyvale, Calif.) over 15 mins at 30° C. For each Ki determination 12 data points covering the VRT concentration range of 0-20 μM were obtained in duplicate (DMSO stocks were prepared from an initial 10 mM VRT stock with subsequent 1:2 serial dilutions). Ki values were calculated from initial rate data by non-linear regression using the Prism software package (Prism 4.0a, Graphpad Software, San Diego, Calif.).

PKC theta kinase = PKC theta kinase (Homo sapiens, UniProt Q04759); assay: PKC theta coupled-enzyme (NADH consumption) kinase assay; conditions: 18 nM PKC theta, 240 μM ATP, 30° C., initial rate at 340 nm
Experimental: (§1) An assay buffer solution was prepared which consisted of 100 mM HEPES (pH 7.5), 10 mM MgCl2, 25 mM NaCl, 0.1 mM EDTA and 0.01% Brij. […] To 60 μL of this enzyme buffer, in a 384 well plate, was added 2 μL of VRT stock solution in DMSO. […] The enzyme reaction was initiated by the addition of 5 μL stock ATP solution prepared in assay buffer to a final assay concentration of 240 μM. Initial rate data was determined from the rate of change of absorbance at 340 nm (corresponding to stoichiometric consumption of NADH) using a Molecular Devices Spectramax plate reader (Sunnyvale, Calif.) over 15 mins at 30° C. For each Ki determination 12 data points covering the VRT concentration range of 0-20 μM were obtained in duplicate (DMSO stocks were prepared from an initial 10 mM VRT stock with subsequent 1:2 serial dilutions). Ki values were calculated from initial rate data by non-linear regression using the Prism software package (Prism 4.0a, Graphpad Software, San Diego, Calif.).

PKC delta kinase = PKC delta kinase (Homo sapiens, UniProt Q05655); assay: PKC delta coupled-enzyme (NADH consumption) kinase assay; conditions: 46 nM PKC delta, 150 μM ATP, 30° C., initial rate at 340 nm
Experimental: as §1, with “To 16” for “To 60”, “added 1” for “added 2”, “of 16” for “of 5”, “of 150” for “of 240”

Chain of PKC delta kinase (Q05655 whole entry): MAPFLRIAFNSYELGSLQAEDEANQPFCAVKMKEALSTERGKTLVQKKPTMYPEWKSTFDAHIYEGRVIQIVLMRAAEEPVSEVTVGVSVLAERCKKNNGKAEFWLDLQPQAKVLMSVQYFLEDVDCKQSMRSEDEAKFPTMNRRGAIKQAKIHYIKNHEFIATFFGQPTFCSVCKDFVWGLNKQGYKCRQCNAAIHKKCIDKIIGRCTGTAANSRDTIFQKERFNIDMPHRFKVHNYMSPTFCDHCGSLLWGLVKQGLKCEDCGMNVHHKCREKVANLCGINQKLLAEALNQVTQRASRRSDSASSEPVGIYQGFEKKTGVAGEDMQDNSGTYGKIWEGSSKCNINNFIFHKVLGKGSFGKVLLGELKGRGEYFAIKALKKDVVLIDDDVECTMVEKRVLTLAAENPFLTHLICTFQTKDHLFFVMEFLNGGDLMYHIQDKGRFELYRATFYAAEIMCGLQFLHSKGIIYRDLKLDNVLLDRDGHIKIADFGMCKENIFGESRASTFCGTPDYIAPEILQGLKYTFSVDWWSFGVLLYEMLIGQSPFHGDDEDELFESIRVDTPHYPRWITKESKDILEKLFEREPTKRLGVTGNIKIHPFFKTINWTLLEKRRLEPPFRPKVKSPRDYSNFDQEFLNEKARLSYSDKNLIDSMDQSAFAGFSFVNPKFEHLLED
Chain of PKC theta kinase (Q04759 whole entry): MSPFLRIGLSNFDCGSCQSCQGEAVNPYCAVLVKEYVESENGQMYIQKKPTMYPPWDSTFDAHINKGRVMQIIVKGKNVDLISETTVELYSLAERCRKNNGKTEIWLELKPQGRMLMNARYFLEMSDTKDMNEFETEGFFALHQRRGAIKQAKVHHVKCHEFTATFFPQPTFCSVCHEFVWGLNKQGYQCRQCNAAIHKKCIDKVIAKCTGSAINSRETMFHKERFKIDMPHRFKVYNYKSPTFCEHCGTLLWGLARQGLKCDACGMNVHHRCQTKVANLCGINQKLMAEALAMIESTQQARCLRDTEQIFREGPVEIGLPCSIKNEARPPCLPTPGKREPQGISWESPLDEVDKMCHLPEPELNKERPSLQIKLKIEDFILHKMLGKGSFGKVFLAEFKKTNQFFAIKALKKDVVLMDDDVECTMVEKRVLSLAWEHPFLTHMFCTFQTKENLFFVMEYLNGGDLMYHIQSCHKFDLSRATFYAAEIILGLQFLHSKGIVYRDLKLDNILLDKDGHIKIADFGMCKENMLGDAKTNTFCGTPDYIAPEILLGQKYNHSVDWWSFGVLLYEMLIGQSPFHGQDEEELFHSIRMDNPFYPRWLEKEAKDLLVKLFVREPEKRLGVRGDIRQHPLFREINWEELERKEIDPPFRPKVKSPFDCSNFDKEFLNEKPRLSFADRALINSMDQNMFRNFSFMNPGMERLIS

Ki (PKC delta kinase) | Ki (PKC alpha kinase; read-out: Ki PKC alpha) | Ki (PKC theta kinase; read-out: Ki PKC theta) | SMILES | Ki (PKC alpha kinase; Ki PKC alpha) | Ki (PKC theta kinase; Ki PKC theta)
< 50 nM | < 500 nM | < 1 nM | CC(C)[C@@H](O)[C@@H]1CN(c2nc(-c3n[nH]c4ncccc34)c(F)cc2F)CCN1 [Compound 7] |  | 
< 500 nM | < 2800 nM | < 50 nM | CC(C)[C@](C)(O)[C@@H]1CN(c2nc(-c3n[nH]c4ncccc34)c(F)cc2Cl)CCN1 [Compound 38] |  | 
< 500 nM | > 1250 nM | < 50 nM | CC(C)C(N)[C@H]1CCN(c2nc(-c3n[nH]c4ncccc34)c(F)cc2Cl)C1 (stereo partly shown) [Compound 24] |  | 
< 50 nM | < 500 nM |  | CC(C)(F)C(C)(O)C1CN(c2nc(-c3n[nH]c4ncccc34)c(F)cc2F)CCN1 (stereo not shown) [Compound 12] |  | 
 | < 2800 nM |  | COCC(C)(O)C1CN(c2nc(-c3n[nH]c4ncccc34)c(F)cc2F)CCN1 (stereo not shown) [Compound 17] |  | 
< 50 nM | < 500 nM | < 1 nM | CC(C)C(N)[C@H]1CCN(c2nc(-c3n[nH]c4ncccc34)c(F)cc2F)C1 (stereo partly shown) [Compound 28] |  | 
< 500 nM | < 2800 nM | < 50 nM | CC(C)C(O)C1CN(c2nc(-c3n[nH]c4ncccc34)c(F)cc2Cl)CCN1 (stereo not shown) [Compound 21] |  | 
> 1250 nM | > 1250 nM | < 50 nM | CC(C)[C@@](C)(O)[C@@H]1CN(c2nc(-c3n[nH]c4ncccc34)c(C#N)cc2F)CCN1 [Compound 43] |  | 
< 500 nM | > 1250 nM | < 50 nM | CC(CO)[C@@](C)(O)[C@@H]1CN(c2nc(-c3n[nH]c4ncccc34)c(F)cc2F)CCN1 (stereo partly shown) [Compound 39] |  | 
> 1250 nM | > 1250 nM | < 500 nM | CC(CO)[C@@](C)(O)[C@@H]1CN(c2nc(-c3n[nH]c4ncccc34)c(F)cc2Cl)CCN1 (stereo partly shown) [Compound 45] |  | 
< 500 nM | > 1250 nM | < 1 nM | CC(O)(C1CC1)C1CN(c2nc(-c3n[nH]c4ncccc34)c(F)cc2F)CCN1 (stereo not shown) [Compound 4] |  | 
< 500 nM | > 1250 nM | < 50 nM | CC[C@H](O)[C@@H]1CN(c2nc(-c3n[nH]c4ncccc34)c(F)cc2F)CCN1 [Compound 25] |  | 
< 10 nM | < 2800 nM | < 1 nM | CC(C)(F)C(C)(O)C1CN(c2nc(-c3n[nH]c4ncccc34)c(F)cc2F)CCN1 (stereo not shown) [Compound 11] |  | 
< 50 nM | < 500 nM | < 1 nM | CC(C)C(O)C1CN(c2nc(-c3n[nH]c4ncccc34)c(F)cc2Cl)CCN1 (stereo not shown) [Compound 20] |  | 
 | > 1250 nM |  | CC(C)[C@@](C)(O)[C@@H]1CN(c2nc(-c3n[nH]c4ncccc34)c(F)cc2C#N)CCN1 [Compound 10] |  | 
< 50 nM | < 500 nM | < 1 nM | CC(O)(CC(F)(F)F)C1CN(c2nc(-c3n[nH]c4ncccc34)c(F)cc2F)CCN1 (stereo not shown) [Compound 15] |  | 
< 50 nM | < 2800 nM | < 1 nM | CCC(O)C1CN(c2nc(-c3n[nH]c4ncccc34)c(F)cc2Cl)CCN1 (stereo not shown) [Compound 19] |  | 
< 50 nM | < 500 nM | < 1 nM | CC(C)C(N)[C@H]1CCN(c2nc(-c3n[nH]c4ncccc34)c(F)cc2Cl)C1 (stereo partly shown) [Compound 23] |  | 
< 10 nM | < 500 nM | < 1 nM | CC(C)[C@@](C)(O)[C@@H]1CN(c2nc(-c3n[nH]c4ncccc34)c(F)cc2CO)CCN1 [Compound 44] |  | 

Ki (PKC delta kinase) | Ki (PKC alpha kinase; read-out: Ki PKC alpha) | Ki (PKC theta kinase; read-out: Ki PKC theta) | SMILES | Ki (PKC alpha kinase; Ki PKC alpha) | Ki (PKC theta kinase; Ki PKC theta)
< 50 nM | < 500 nM | < 1 nM | CC(C)[C@@](C)(O)[C@@H]1CN(c2nc(-c3n[nH]c4ncccc34)c(F)cc2Cl)CCN1 [Compound 9, (R)-2-((S)-4-(3-chloro-5-fluoro-6-(1H-pyrazolo[3,4-b]pyridin-3-yl)pyridin-2-yl)piperazin-2-yl)-3-methylbutan-2-ol] |  | 
< 10 nM | < 500 nM | < 1 nM | CC(C)(C)C(O)C1CN(c2nc(-c3n[nH]c4ncccc34)c(F)cc2F)CCN1 (stereo not shown) [Compound 27] |  | 
> 1250 nM | > 1250 nM | < 500 nM | CC(C)C(N)[C@H]1CCN(c2nc(-c3n[nH]c4ncccc34)c(C#N)cc2F)C1 (single isomer, unassigned) [Compound 36] |  | 
 |  | < 500 nM | CC(C)[C@@](C)(O)C1CN(c2nc(-c3n[nH]c4ncccc34)c(C#N)cc2F)CCN1 (stereo partly shown) [Compound 35] |  | 
< 500 nM | > 1250 nM | < 50 nM | COCC(C)(O)C1CN(c2nc(-c3n[nH]c4ncccc34)c(F)cc2F)CCN1 (stereo not shown) [Compound 16] |  | 
< 50 nM | < 500 nM | < 1 nM | OC(C1CC1)C1CN(c2nc(-c3n[nH]c4ncccc34)c(F)cc2F)CCN1 (stereo not shown) [Compound 29] |  | 
< 500 nM | < 2800 nM | < 1 nM | CC(O)(C1CN(c2nc(-c3n[nH]c4ncccc34)c(F)cc2F)CCN1)C(F)(F)F (stereo not shown) [Compound 13] |  | 
< 50 nM | < 500 nM | < 1 nM | CC(CO)[C@@](C)(O)[C@@H]1CN(c2nc(-c3n[nH]c4ncccc34)c(F)cc2F)CCN1 (stereo partly shown) [Compound 40] |  | 
< 50 nM | < 2800 nM | < 1 nM | CCC(C)(O)C1CN(c2nc(-c3n[nH]c4ncccc34)c(F)cc2F)CCN1 (stereo not shown) [Compound 6] |  | 
> 1250 nM | > 1250 nM | < 50 nM | CC(C)[C@@](C)(O)C1CN(c2nc(-c3n[nH]c4ncccc34)c(C#N)cc2F)CCN1 (stereo partly shown) [Compound 34] |  | 
< 10 nM | < 500 nM | < 1 nM | CC(C)[C@@](C)(O)[C@@H]1CN(c2nc(-c3n[nH]c4ncccc34)c(F)cc2O)CCN1 [Compound 32] |  | 
< 500 nM | > 1250 nM | < 50 nM | COCC(C)(O)C1CN(c2nc(-c3n[nH]c4ncccc34)c(F)cc2Cl)CCN1 (stereo not shown) [Compound 33] |  | 
< 10 nM | < 500 nM | < 1 nM | CC1(C)CC1(O)C1CN(c2nc(-c3n[nH]c4ncccc34)c(F)cc2F)CCN1 (stereo not shown) [Compound 2] |  | 
< 10 nM | < 500 nM | < 1 nM | CC(O)(C1CC1)C1CN(c2nc(-c3n[nH]c4ncccc34)c(F)cc2Cl)CCN1 (stereo not shown) [Compound 30] |  | 
< 500 nM | < 2800 nM | < 50 nM | CC(C)C(N)C1CCN(c2nc(-c3n[nH]c4ncccc34)c(F)cc2F)C1 (stereo not shown) [Compound 22] |  | 
< 500 nM | < 2800 nM | < 50 nM | CC(C)C(N)[C@H]1CCN(c2nc(-c3n[nH]c4ncccc34)c(F)cc2C#N)C1 (stereo partly shown) [Compound 37] |  | 
< 500 nM | < 500 nM | < 1 nM | CC(C)(O)[C@@](C)(O)[C@@H]1CN(c2nc(-c3n[nH]c4ncccc34)c(F)cc2F)CCN1 [Compound 41] |  | 
< 50 nM | < 500 nM |  | CC(O)(C1CC1)C1CN(c2nc(-c3n[nH]c4ncccc34)c(F)cc2F)CCN1 (stereo not shown) [Compound 5] |  | 

SMILES | Ki (PKC delta kinase) | Ki (PKC alpha kinase; read-out: Ki PKC alpha) | Ki (PKC theta kinase; read-out: Ki PKC theta) | Ki (PKC alpha kinase; Ki PKC alpha) | Ki (PKC theta kinase; Ki PKC theta)
CC(C)[C@@](C)(O)[C@@H]1CN(c2nc(-c3n[nH]c4ncccc34)c(F)cc2F)CCN1 [Compound 1, (R)-2-((S)-4-(3,5-difluoro-6-(1H-pyrazolo[3,4-b]pyridin-3-yl)pyridin-2-yl)piperazin-2-yl)-3-methylbutan-2-ol] | < 50 nM |  |  | < 500 nM | < 1 nM
CC(C)C(C)(O)C1CN(c2nc(C3N=Nc4ncccc43)c(F)cc2F)CCN1 (stereo not shown) [Compound 3] | < 500 nM |  |  | < 2800 nM | < 1 nM
